Experimental data published in patent publication US11819540B2, “Methods for treating and preventing neutrophil-derived net toxicity and thrombosis” (CHILDREN'S MEDICAL CENTER CORPORATION, priority 2011, dated 2023).

Experiments:
[1] = test system: platelets; assay: Platelet aggregation (light transmission) with histones; assay type: cell-based, human; details: EDTA 5 mM; heparin
Text: (§1) For FIGS. 2A and 2B data are presented as mean±SEM, n=3; (Student's t test; *P<0.05; **P<0.01). […] A second band (arrowhead) may represent cross reactivity of the antibody or a proteolytic product. Data presented are representative of three independent experiments. FIG. 2D is a graph of the degree of aggregation of platelets treated with thrombin (open circles), human recombinant histone H3 (solid circles), EDTA (solid squares), and heparin (solid triangles). […] FIG. 2E is a graph of the degree of aggregation of platelets 3 minutes after addition of various histones or throbmin (Thr). […] (ANOVA; ***P<0.001 compared with histone H1).
The possibility of a direct interaction between platelets and histones was examined. […] Thrombin (0.5 U/mL; open circles in FIG. 2D) and […] served as a positive control in these experiments. Aggregation in response to histone H3 (FIG. 2D) and H4 (data not shown) was inhibited by EDTA (5 mM; solid squares in FIG. 2D) which excluded platelet agglutination caused by the positive charge of histones. […] Dissociating NETs and inhibiting histones could add to the antithrombotic effects of heparin.

[2] = test system: NETs; assay: Perfusion of blood over NETs in a flow chamber; assay type: cell-based, human
Experimental: The interaction between NETs and blood was studied using NETs isolated from human neutrophils. Blood samples were obtained from healthy donors who had not taken any medication for at least 10 day. Platelets and neutrophils were prepared from ACD-blood (Brill A, et al. Cardiovasc Res 2009 84(1):137-144) or EDTA-blood (Fuchs et al., J Cell Biol 2007 176:231-241), respectively. Neutrophils were seeded into flow chambers (μ-Slide IV, IBIDI) at 0.5 to 1×10^7 cells/mL. NET formation by the majority of cells was induced by phorbol 12-myristate 13-acetate (PMA, 50 nM, 4 h; Sigma Aldrich) or glucose oxidase (GO, 1 U/mL, 4 h; Worthington Biochem), as previously described (Brill A, et al. Cardiovasc Res 2009 84(1):137-144). PMA-induced NETs were used for initial observations. Other experiments were done with GO-induced NETs. NETs were washed and blocked with 1% BSA (Calbiochem). NET-DNA was stained with 1 μg/mL Hoechst 33258 (Invitrogen) for 15 min at 37° C. or SytoxGreen (1 μM, Invitrogen). Washed platelets were loaded with fluorescent Calcein-AM (2.5 μg/mL, 10 min, 37° C.; Invitrogen) or platelets in whole blood were labeled with Rhodamine 6G (5 μg/mL, 10 min, 37° C.; Sigma). Fluorescent images were acquired by a Zeiss Axiovert 200 inverted fluorescence microscope in conjunction with a monochrome camera (AxioCam MRm). Colors for fluorescence channels were assigned using Axiovision software. Fluorescent areas in images were quantified using ImageJ software.
(§2) NETs were induced on glass coverslips and perfusion was performed using a parallel-plate flow chamber system (Glycotech). NETs were perfused with platelets suspended in plasma at a shear rate of 200/s or 900/s and 37° C. using a peristaltic pump and observed to be avidly adhering platelets. NETs were washed and fixed with 2.5% glutaraldehyde and electron microscopy was performed. […] NETs were also perfused with ACD-anticoagulated blood supplemented with the irreversible thrombin inhibitor PPACK-Dihydrochloride (100 μM; Calbiochem) and recalcified by addition of 2 mM CaCl2. […] Cells firmly attached to collagen or NETs were lysed with 100 μL of 0.5% Triton×100 in water. Hemoglobin content was measured using the method of Drabkin (Drabkin PNAS 1971 68:609-13). To quantify platelets, Rhodamine-6G fluorescence of the sample was analyzed using a fluorometer.
Strings of NETs aligned in the direction of flow and, importantly, NETs were not a static surface but moved in three dimensions. Within 1 min from onset of perfusion, small platelet aggregates appeared on NETs. Platelet adhesion and aggregation on NETs increased over the next 9 min. […] Both platelet aggregates and NETs were removed by DNase and 10 minutes after the beginning of perfusion (FIGS. 1C and 1D). […] Thus, NETs were the only prothrombotic substrate in these experiments. FIGS. 1C and 1D show data that are representative of at least three independent experiments and are shown as mean±SEM, n=3. AU means arbitrary units.

[3] = test system: NETs; assay: Incubation of NETs under static conditions, immunodetection of released histone H2B; assay type: cell-based, human
Text: as §1
The effect of heparin was also observed in medium, indicating a direct interaction of heparin with the NETs. Heparin has high affinity for histones (Pal et al., Thromb Res 1983 31:69-79) and releases histones from chromatin (Napirei et al. FEBS J 2009 276:1059-1073).

[4] = test system: collagen; assay: Perfusion of blood over collagen-coated flow chamber; assay type: cell-based; details: blood supplemented with DNase
Experimental: as §2
When NETs were washed after perfusion with blood and observed macroscopically a red thrombus was detectable (FIG. 3A). Shown in FIG. 3A is a flow chamber coated with NETs after perfusion with blood. Light microscopy of a red thrombus (arrow) anchored on two strings (arrowheads). FIG. 3A is a composite of multiple photographs of the flow chamber. (Scale bar, 500 μm). […] RBC adhesion to NETs was prevented when blood was supplemented with DNase, confirming that RBCs were attached to NETs. […]

[5] = test system: NETs; assay: Binding of plasma VWF, fibronectin and fibrinogen to NETs; assay type: cell-based, human; details: DNaseI 100 U/mL, 10 min after plasma incubation
Experimental: FIGS. 19A-19C depict graphs of the binding of von Willebrand factor (VWF), fibronectin, and fibrinogen to neutrophil extracellular traps (NETs). Human NETs were incubated with human plasma for 30 min, washed, and stained for VWF (19A), fibronectin (19B), or fibrinogen (19C). […] Data are presented as mean±SEM, n=3; (Student's t test); **P<0.01; ***P<0.001.
Whether NETs can concentrate plasma proteins that promote and stabilize thrombi (Frenette and Wagener NEJM 1996 335:43-5) was determined. […] After the activation, NETs were incubated with 1% BSA for 1 h at 37° C. NETs were washed and incubated with 50% plasma in PBS for 30 min at 37° C. Next, NETs were washed and treated with DNaseI (100 U/mL, 10 min). After another wash, cells were fixed with paraformaldehyde (2%, 1 h at 37° C.) and unspecific binding sites were blocked with BSA (3%, 1 h at 37° C.). Primary antibodies were used at 1 μg/mL in PBS supplemented with 1% BSA and 0.1% Triton×100 [mouse-antifibrinogen, rabbit-antifibronectin (both Sigma); rabbit-anti-VWF, (Chemicon)]. After incubation at 37° C. for 1 h, samples were washed with PBS and fluorescently conjugated secondary antibodies (Invitrogen) were applied at 10 μg/mL for 30 min at 37° C. […] The interaction of fibrinogen with NETs and its ability to promote fibrin deposition was determined. […]

[6] = test system: blood clots (fibrin and NET scaffold); assay: Clot formation in recalcified blood with or without PAF-activated neutrophils (thrombolysis); assay type: cell-based, human; details: tPA 25 μg/mL, DNase 100 U/mL
Experimental: Fibrin polymerization was induced in blood by recalcification and incubated either in the absence (medium) or presence of neutrophils preactivated by PAF to induce NET formation (neutrophils+PAF). Samples were treated with DNase to digest extracellular traps or tPA for fibrin digestion. […] (Scale bar, 1 cm.) The graph presents quantification of the clots by weighing. […] Data are presented as mean±SEM, n=4; (ANOVA; ***P<0.001). The first bar in each x-axis category represents the untreated samples, the second bar represents the samples treated with DNase, the third bar represents the samples treated with tPA, and the fourth bar represents the samples treated with tPA and DNase.
The relative susceptibility of NETs and fibrin to serve as scaffolds for blood clots to thrombolysis was examined (FIG. 20). Neutrophils were prestimulated with platelet-activating factor to release NETs with recalcified blood under stirring conditions. Two-hundred-fifty microliters of 5×10^6 neutrophils per milliliter in RPMI medium were activated by platelet activating factor (50 μM Calbiochem) at 37° C. under static conditions to induce NET formation. Control samples were 250 μL medium alone, 250 μL of unstimulated neutrophils, or 250 μL of 50 μM PAF in medium. After 10 min, 250 μL of recalcified (40 mM CaCl2) ACD anticoagulated blood was added. […] Images were acquired and the clot was determined. […]

[7] = blood supplemented with DNase at the beginning of the perfusion

For `O=C(O)CN(CCN(CC(=O)O)CC(=O)O)CC(=O)O` [EDTA, ethylenediaminetetraacetic acid], the “platelet aggregation in response to histone H3 and H4 in presence of inhibitor” value [1] was “inhibited”.
For Heparin [reference compound], the “platelet aggregates on NETs” value ([2]; heparin 10 μg/mL) was “removed platelet aggregates from NETs”, the “NETs (NET-DNA)” value ([2]; heparin 100 μg/mL, perfusion with heparinized blood, 10 min) was “almost completely dismantled NETs” and the “release of histones (H2B) from NETs” value [3] was “released histones to the culture supernatant”. For the same compound, the “platelet aggregation in response to histone H3 and H4 in presence of inhibitor” value [1] was “completely abolished platelet response to these histones”.
In the case of DNase, the “NETs and adherent platelets after DNase addition” value ([2]; DNase 100 U/mL added 10 min after beginning of perfusion) is reported as “simultaneously removed NETs and platelets”, the “RBC adhesion to NETs” value ([2]; blood supplemented with DNase) is reported as “prevented” and the “platelet adhesion to NETs” value ([2]; blood supplemented with DNase) is reported as “prevented platelet adhesion to NETs”. The “NETs (NET-DNA area)” value [2, 7] was “NETs were degraded rapidly”, the “platelet aggregates on NETs” value [2, 7] was “platelet aggregates did not form” and the “platelet adhesion to collagen-coated chambers” value [4] was “had no effect”. The “release of histones (H2B) from NETs” value [3] was “released histones to the culture supernatant”, the “binding of VWF, fibronectin and fibrinogen to NETs” value [5] was “binding to NETs in a DNase-sensitive manner” and the clot formation ([6]; absence of activated neutrophils (medium)) was “had no effect”. For the same compound, the “clot formation / clot size” value ([6]; presence of PAF-activated neutrophils) was “did not change”.
